The record followed here is the supplement of paper PMC12076712.

Bounds are passed on as bounds.

One may read the pIC50 as −log10 of the IC50, conventionally taken in molar units.

Holding throughout (experiment): pIC50, kinobeads binding competition
The target of test [1] is T1, TAOK2 (UniProt Q9UL54).
T1 sequence (whole entry): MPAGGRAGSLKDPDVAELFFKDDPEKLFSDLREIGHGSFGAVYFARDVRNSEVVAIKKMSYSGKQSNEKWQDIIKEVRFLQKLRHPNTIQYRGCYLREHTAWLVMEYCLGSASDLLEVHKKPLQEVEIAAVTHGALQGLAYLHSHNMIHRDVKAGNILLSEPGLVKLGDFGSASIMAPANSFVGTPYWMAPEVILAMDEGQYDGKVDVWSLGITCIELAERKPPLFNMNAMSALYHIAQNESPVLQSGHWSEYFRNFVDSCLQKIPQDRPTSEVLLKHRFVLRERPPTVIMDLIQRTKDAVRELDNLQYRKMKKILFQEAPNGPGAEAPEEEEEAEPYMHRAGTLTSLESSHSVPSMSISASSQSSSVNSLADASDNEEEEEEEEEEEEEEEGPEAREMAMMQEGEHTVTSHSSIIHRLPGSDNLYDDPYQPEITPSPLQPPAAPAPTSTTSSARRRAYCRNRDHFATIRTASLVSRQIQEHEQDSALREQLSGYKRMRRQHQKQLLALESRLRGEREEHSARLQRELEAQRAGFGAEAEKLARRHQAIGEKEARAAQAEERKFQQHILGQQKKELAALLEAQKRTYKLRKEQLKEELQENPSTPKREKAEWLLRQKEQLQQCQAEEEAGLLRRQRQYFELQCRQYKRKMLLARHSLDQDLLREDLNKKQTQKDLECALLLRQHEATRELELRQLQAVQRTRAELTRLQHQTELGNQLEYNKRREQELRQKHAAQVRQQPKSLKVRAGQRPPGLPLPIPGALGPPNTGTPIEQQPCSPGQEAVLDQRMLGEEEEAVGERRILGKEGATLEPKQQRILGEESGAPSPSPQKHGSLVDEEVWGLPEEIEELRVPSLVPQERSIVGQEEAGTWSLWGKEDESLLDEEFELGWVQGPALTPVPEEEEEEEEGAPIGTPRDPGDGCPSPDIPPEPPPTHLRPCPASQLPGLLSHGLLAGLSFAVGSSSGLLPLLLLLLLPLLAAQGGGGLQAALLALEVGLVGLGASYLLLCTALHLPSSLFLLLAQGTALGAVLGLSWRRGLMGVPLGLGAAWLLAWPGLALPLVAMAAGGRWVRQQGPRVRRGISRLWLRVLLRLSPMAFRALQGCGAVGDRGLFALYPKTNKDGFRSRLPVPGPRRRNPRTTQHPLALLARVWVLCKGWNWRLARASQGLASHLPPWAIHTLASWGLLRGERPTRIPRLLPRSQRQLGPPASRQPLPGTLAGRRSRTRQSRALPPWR
The procedure, abridged:
(§1)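 Nine compound concentrations were tested, starting at 30 μM in 1:4 steps on live Jurkat cells (60 min, 37 °C, then lysis) or in 1:5 steps on Jurkat lysate or a 1:1:1:1 HEK293/K-562/HepG2/placenta lysate mix (60 min, 4 °C). Kinobeads-bound proteins were digested and quantified with TMT10 LC-MS/MS. pIC50 values are from logistic dose-response fits in the R drc package of fold changes relative to vehicle, from biological duplicates.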

The target in test [2] is T2, TEC (UniProt P42680).
T2 sequence (whole entry): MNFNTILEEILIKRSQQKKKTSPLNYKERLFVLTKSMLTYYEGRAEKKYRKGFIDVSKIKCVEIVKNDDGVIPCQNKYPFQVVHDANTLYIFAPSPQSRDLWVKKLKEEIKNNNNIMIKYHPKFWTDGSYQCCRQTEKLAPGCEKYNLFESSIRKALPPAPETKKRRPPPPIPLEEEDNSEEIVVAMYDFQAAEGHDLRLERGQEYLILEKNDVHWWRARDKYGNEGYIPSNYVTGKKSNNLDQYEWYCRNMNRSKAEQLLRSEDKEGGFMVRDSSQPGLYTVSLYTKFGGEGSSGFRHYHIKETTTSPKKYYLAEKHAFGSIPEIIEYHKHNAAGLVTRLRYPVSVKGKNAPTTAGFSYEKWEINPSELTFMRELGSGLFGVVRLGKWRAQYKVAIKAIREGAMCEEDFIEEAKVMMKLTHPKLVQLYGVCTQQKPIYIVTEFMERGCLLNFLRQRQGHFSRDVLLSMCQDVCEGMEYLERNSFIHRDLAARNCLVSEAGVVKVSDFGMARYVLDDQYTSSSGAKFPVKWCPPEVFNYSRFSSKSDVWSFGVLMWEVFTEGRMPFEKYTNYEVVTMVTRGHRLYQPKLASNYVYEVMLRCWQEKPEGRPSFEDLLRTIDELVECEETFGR
The procedure, abridged: as §1

Test [3] deals with AAK1 (UniProt Q2M2I8). The procedure, abridged:
as §1

The target of test [4] is T3, MYLK3 (UniProt Q32MK0).
T3 sequence (whole entry): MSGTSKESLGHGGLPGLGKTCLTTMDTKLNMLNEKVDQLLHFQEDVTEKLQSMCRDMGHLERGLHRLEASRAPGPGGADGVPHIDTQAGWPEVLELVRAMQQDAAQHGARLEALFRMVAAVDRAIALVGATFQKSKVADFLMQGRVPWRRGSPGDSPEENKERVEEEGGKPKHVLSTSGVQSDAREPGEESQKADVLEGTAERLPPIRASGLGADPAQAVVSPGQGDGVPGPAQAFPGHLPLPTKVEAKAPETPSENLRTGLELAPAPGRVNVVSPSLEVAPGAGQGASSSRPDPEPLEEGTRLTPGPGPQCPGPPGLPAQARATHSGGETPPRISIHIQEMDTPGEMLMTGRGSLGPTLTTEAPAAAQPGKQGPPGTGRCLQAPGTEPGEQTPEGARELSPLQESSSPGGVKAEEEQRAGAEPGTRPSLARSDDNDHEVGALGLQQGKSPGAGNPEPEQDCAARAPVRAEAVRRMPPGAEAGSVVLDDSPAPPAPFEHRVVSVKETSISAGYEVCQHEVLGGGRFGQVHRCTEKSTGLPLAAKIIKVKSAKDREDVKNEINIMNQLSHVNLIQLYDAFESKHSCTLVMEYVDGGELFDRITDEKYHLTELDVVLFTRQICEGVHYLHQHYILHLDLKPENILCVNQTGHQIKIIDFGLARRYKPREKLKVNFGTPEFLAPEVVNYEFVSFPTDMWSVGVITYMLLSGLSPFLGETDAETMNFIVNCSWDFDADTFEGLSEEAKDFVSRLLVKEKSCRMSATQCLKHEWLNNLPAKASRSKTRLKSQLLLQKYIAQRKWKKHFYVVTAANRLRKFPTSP
To be noted: cell material: Lysate mix. The procedure, abridged:
as §1

The target of test [5] is UniProt Q9NYL2. The procedure, abridged: as §1
UniProt Q9NYL2, sequence (Q9NYL2 whole entry, looked up): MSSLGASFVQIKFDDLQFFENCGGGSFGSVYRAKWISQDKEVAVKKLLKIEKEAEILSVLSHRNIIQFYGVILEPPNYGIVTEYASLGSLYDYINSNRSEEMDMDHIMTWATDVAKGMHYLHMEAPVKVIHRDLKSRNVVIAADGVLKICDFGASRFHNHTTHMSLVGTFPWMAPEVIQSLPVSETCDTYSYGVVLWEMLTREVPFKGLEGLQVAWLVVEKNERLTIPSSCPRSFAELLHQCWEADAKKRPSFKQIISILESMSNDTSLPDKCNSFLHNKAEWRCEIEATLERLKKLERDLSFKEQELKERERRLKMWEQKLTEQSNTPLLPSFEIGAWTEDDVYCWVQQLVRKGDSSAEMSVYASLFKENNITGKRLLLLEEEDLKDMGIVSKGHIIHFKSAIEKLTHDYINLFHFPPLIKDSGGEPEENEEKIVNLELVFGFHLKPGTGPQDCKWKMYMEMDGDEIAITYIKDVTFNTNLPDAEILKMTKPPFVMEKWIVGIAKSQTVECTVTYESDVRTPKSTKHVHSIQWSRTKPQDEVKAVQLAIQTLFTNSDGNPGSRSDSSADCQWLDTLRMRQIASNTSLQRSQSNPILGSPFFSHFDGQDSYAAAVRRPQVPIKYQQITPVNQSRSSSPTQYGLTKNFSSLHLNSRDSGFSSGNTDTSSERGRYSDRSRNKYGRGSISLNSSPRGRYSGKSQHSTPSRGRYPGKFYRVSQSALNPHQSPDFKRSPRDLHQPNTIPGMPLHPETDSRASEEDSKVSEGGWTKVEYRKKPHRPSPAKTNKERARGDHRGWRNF

AAK1, sequence (Q2M2I8 whole entry, looked up): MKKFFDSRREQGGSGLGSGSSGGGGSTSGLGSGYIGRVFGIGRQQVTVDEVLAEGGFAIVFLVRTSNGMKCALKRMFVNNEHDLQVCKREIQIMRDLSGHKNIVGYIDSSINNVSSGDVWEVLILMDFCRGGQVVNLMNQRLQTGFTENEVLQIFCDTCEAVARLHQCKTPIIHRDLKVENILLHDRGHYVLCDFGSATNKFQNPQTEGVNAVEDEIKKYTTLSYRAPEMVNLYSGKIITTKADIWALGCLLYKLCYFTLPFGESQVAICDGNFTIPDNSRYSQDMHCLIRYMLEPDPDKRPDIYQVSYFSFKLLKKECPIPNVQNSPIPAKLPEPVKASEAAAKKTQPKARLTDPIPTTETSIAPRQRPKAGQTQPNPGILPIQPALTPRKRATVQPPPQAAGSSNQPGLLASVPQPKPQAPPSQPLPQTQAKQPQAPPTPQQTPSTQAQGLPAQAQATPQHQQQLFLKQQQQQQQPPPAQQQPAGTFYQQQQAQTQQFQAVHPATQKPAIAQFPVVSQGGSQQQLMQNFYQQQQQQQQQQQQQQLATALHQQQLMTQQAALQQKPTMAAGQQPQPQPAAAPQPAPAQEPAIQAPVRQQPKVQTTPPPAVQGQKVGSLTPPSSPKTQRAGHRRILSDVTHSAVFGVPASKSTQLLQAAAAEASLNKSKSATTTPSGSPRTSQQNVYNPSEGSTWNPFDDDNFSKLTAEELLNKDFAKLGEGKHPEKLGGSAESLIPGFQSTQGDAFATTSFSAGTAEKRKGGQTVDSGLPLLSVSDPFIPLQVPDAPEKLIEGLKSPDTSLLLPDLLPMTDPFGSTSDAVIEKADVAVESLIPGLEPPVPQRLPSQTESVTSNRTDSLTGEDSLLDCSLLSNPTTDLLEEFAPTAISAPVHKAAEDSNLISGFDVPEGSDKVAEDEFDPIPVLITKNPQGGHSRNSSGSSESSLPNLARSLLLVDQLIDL

In the case of `C#CCNC(=O)c1cc(Nc2cc(C)[nH]n2)nc(N2CCN(Cc3ccc(S(=O)(=O)F)cc3)CC2)n1`, the pIC50 in test [1] (cell material: Lysate mix), in test [2] (cell material: Lysate mix), in test [3] (cell material: Lysate mix), in test [4] and in test [5] (cell material: Lysate mix) was less than 4.52 throughout.

For `O=C(NCCNC(=O)c1cc(Nc2cc(C3CC3)[nH]n2)nc(N2CCN(Cc3ccc(S(=O)(=O)F)cc3)CC2)n1)OC1CC/C=C/CCC1` (stereo not given), the pIC50 is 5.96 in test [1] (cell material: Jurkat cells); 5.08 in test [1] (cell material: Jurkat lysate); 5.33 in test [1] (cell material: Lysate mix); 4.8 in test [2] (cell material: Jurkat cells); less than 4.52 in test [2] (cell material: Jurkat lysate); less than 4.52 in test [2] (cell material: Lysate mix). Further, the negative-log IC50 (pIC50) in test [3] (cell material: Jurkat cells), in test [3] (cell material: Jurkat lysate), in test [3] (cell material: Lysate mix), in test [4], in test [5] (cell material: Jurkat cells) and in test [5] (cell material: Jurkat lysate) was less than 4.52 each time. This compound gave a pIC50 in test [5] (cell material: Lysate mix) of less than 4.52.

As for `CCNC(=O)c1cc(Nc2cc(C3CC3)[nH]n2)nc(N2CCN(Cc3ccc(S(=O)(=O)F)cc3)CC2)n1`, the pIC50 is less than 4.52 in test [1] (cell material: Lysate mix); less than 4.52 in test [2] (cell material: Lysate mix); less than 4.52 in test [3] (cell material: Lysate mix); 4.69 in test [4]; less than 4.52 in test [5] (cell material: Lysate mix).

Consider `Cc1cc(Nc2cc(C(=O)NCCNC(=O)OC3CC/C=C/CCC3)nc(N3CCN(Cc4ccc(S(=O)(=O)F)cc4)CC3)n2)n[nH]1` (stereo not given), for which the pIC50 is 5.15 in test [1] (cell material: Lysate mix); less than 4.52 in test [2] (cell material: Lysate mix); less than 4.52 in test [3] (cell material: Lysate mix); less than 4.52 in test [4]; less than 4.52 in test [5] (cell material: Lysate mix).

Consider `CCNC(=O)c1cc(Nc2cc(C)[nH]n2)nc(N2CCN(Cc3ccc(S(=O)(=O)F)cc3)CC2)n1`, for which the pIC50 in test [1] (cell material: Lysate mix), in test [2] (cell material: Lysate mix), in test [3] (cell material: Lysate mix), in test [4] and in test [5] (cell material: Lysate mix) was less than 4.52 throughout.

On to `C#CCNC(=O)c1cc(Nc2cc(C3CC3)[nH]n2)nc(N2CCN(Cc3ccc(S(=O)(=O)F)cc3)CC2)n1`, for which the negative-log IC50 (pIC50) in test [1] (cell material: Jurkat lysate) was less than 4.52; in test [1] (cell material: Lysate mix), less than 4.52; in test [2] (cell material: Jurkat cells), 5.88; in test [2] (cell material: Jurkat lysate) it was less than 4.52; in test [2] (cell material: Lysate mix), less than 4.52; in test [3] (cell material: Jurkat cells) it was 5.43. Also, the negative-log IC50 (pIC50) in test [3] (cell material: Jurkat lysate) is less than 4.52; in test [3] (cell material: Lysate mix) it was less than 4.52; in test [4] it was less than 4.52; in test [5] (cell material: Jurkat cells) it was 5.56; in test [5] (cell material: Jurkat lysate), less than 4.52; in test [5] (cell material: Lysate mix), less than 4.52.
